pIC50: −log10 of the molar value. Entries after “also recorded” stand apart in the source; their conditions may differ.

Data set [1] has as its system naïve CD4+ T cells co-cultured with B16F1 melanoma cells. The data set is described as follows: T cell proliferation in B16F1-T cell co-culture (MTT). Type of data set: cell-based, mouse. The conditions noted are these: 18 μM. Here is the method:
The main bioassays performed in the study, including HeLa cell-based IDO1/kynurenine assay, Western blot analysis, T cell proliferation and Treg cell differentiation experiments, were carried out as described previously.
T lymphocytes are exceedingly sensitive to low tryptophan levels. Overactivation of the kynurenine pathway by high IDO1 expression leads to local tryptophan depletion, which can suppress T cell proliferation by activating the GCN2 kinase pathway and eventually result in T cell anergy. Here, to determine whether secondary sulphonamides could rescue IDO1-mediated blockade of T cell proliferation, we used a co-culture of IDO1-expressing B16F1 melanoma cells with naïve CD4^+ T cells to mimic the tumour microenvironment. Given that melanoma is a highly immunogenic tumour and IDO1 constitutively expresses in melanoma cells, B16F1 murine melanoma cell lines that express IDO1 were then used to co-culture with T cells. Naïve CD4^+ T cells were isolated from spleens of C57BL/6 mice.
Figure 4. Compounds 5d and 8 g could promote the proliferation of T cells. Based on the B16F1-T cell co-culture system, use MTT assay to test T cells proliferation. The Navoximod and compounds were added to the system at the concentration of 1.5 and 18 μM. Data represent mean ± SEM (n = 3).

The target in a further data set is T1, IDO1 (Homo sapiens, UniProt P14902).
T1 construct: a human cervical cancer cell line HeLa that endogenously expresses IDO1 upon IFN-γ treatment; endogenous in cells; host or cells: HeLa cells treated with human IFN-γ
T1 sequence (P14902 whole entry): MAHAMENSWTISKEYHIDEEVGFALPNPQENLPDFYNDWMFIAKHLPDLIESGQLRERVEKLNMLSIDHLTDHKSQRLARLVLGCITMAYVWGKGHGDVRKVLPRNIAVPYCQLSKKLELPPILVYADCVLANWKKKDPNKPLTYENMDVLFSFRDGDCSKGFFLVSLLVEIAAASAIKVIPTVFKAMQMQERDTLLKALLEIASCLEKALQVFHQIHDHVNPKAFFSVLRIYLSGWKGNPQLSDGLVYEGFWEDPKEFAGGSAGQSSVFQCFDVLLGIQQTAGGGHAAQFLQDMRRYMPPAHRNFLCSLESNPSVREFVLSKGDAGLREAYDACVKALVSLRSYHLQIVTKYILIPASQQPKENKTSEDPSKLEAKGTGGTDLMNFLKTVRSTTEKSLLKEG
Kind of data set: HeLa cell-based IDO1/kynurenine assay.

Another data set relates to B16F1 melanoma. Kind of data set: B16F1 melanoma xenograft in BALB/c mice. Type of data set: in vivo, mouse. Here is the method:
BALB/c mice (6–8 weeks old, 18–22 g) were supplied by Model Animal Research Centre of Nanjing University (Nanjing, China). Mice were maintained under standard specific-pathogen-free (SPF) conditions (21 ± 2 °C and 12-h light: dark cycle). Animal welfare and experimental procedures were carried out strictly in accordance with the Guide for the Care and Use of Laboratory Animals (The Ministry of Science and Technology of China, 2006) and the related ethical regulations of our university. All efforts were made to minimise animals’ suffering and to reduce the number of animals used. Mouse colon cancer cells (CT26) and melanoma cells (B16F1) were cultured and collected by centrifugation (1000 rpm, 5 min) and washed twice with ice-cold PBS. Then cells were diluted to 1 × 10^7/ml and 1 × 10^6 CT26/B16F1 cells (in 0.1 ml PBS) were injected subcutaneously into the right flanks of mice. All mice formed tumours three days after injection. Then mice were randomly distributed into five groups (n = 10/8) according to tumour volumes. 5d ([…], 12.5 mg/kg) were administered (i.g) to each group respectively every day. 5-FU (25 mg/kg) and Cis-platinum (1 mg/kg) were administered (i.p) every three days. Tumour length and tumour width were measured with a Vernier calliper every three days. Tumour volumes were measured and calculated using the equation volume = a × b^2/2, where “a” is the maximal […] and “b” is maximal orthogonal width. After the administration were completed, mice were weighed, euthanized, and tumours were removed and the weight were taken.
For immunohistochemistry staining, the sections were deparaffinized, rehydrated, and washed in 1% PBS-Tween 20, and then treated with 2% hydrogen peroxide, blocked with 3% goat serum (Life Technology, 16210–064) and incubated for 2 h at room temperature with specific primary antibodies. Then the slides were incubated with streptavidin-HRP (Shanghai Gene Company, GK500705) for 40 min, then stained with DAB (Shanghai Gene Company, GK500705) substrate and counter-stained with haematoxylin. Images were acquired by microscopy (Olympus IX51).
In addition, we also utilised a B16F1 melanoma mouse xenograft model to observe the efficacy of compound 5d on the other tumours. Malignant melanoma is a highly invasive tumour and its immunotherapy has been receiving attention in recent years. As mentioned above, B16F1 is a murine melanoma cell line that expresses IDO1. The mouse xenograft model was established by subcutaneously implanting B16F1 melanoma cells into BALB/c mice and treated with 5d (3.125, 6.25, 12.5 mg/kg, i.g, every day) or the positive control Cis-platinum (1 mg/kg, i.p, every other day). Tumour volumes were measured every two days for 11 days.
Figure 13. Compound 5d suppressed melanoma growth in mice. 1 × 10^6 melanoma cells were transplanted subcutaneously into the armpit of the BALB/c mice. Three days after transplantation, mice were randomly allocated to vehicle control or treatment groups (n = 6). Drugs were administered on days 1–11. (A) Tumour volume and mouse body weight (B) were recorded. After sacrifice, solid tumours were separated and weighed (C, D). Data represent mean ± SEM, n = 6, *p < 0.05, **p < 0.01 vs vehicle.
Analogously, we also performed H&E, IHC and TUNEL experiments on the B16F1 melanoma tissues (Figure 14 and 15).

A word on the pIC50: it is the negative decadic logarithm of the IC50, by convention in mol/L. A higher pIC50 goes with a small IC50. In general, inhibition refers to the drop in the measured response relative to a control, in per cent. As for `C=CC(=O)Nc1ccc(S(=O)(=O)NCc2cccc(Cl)c2)cc1` [5d, N-(4-(N-(3-Chlorobenzyl)sulfamoyl)phenyl)acrylamide], the T cell proliferation entry in data set [1] is given as “significant augmentation on T cell activity; also recorded: better enhancement of T cell proliferation than navoximod”. The molecule further showed a pIC50 at IDO1 (HeLa cells, IFN-γ induced IDO1, kynurenine readout) of 5.20. The molecule also yielded an inhibition at 30 µM on IDO1 (percentage inhibition at 30 μM, IFN-γ-treated HeLa cells, kynurenine in media) of 91.1%. Also, in the data set on B16F1 melanoma (B16F1 melanoma tissue), the “IFN-γ expression (IHC)” value was “up-regulating IFN-γ expression”; the “granzyme B (IHC)” value is “stimulating granzyme B secretion”; the “number of tumour cells (H&E, PCNA, TUNEL)” value is “reduce the number of tumour cells by inhibiting proliferation and inducing apoptosis”. Besides, in the data set with B16F1 melanoma (BALB/c mice, 3.125, 6.25, 12.5 mg/kg, i.g, every day, 11 days, vs vehicle), the “tumour growth (tumour volume and tumour weight)” value is “significantly suppressed the growth of tumour in a dose-dependent manner”. Besides, the body weight result with B16F1 melanoma (BALB/c mice, 3.125-12.5 mg/kg i.g, 11 days) is on record as “without significant body weight loss”. In addition, in the data set on B16F1 melanoma (BALB/c mice, high dose, 11 days), the “reduction of average volume of tumour” value stood at 34.3%.

The record behind these values is article PMC7336998, “Discovery of secondary sulphonamides as IDO1 inhibitors with potent antitumour effects in vivo” (Journal of Enzyme Inhibition and Medicinal Chemistry, 2020).
